Results from US8003801B2 (The Scripps Research Institute, priority 2005, dated 2011).
“And” between values parts separate entries of the source, which are not always exact repeats. Equal entries are not always repeated. “Also recorded” adds a separate entry of the source. Where two headings read alike, the source gives them in different places.

Experiments:
[1] = tested on: 1A9 human ovarian cancer cell line; assay: 72 hour growth-inhibition (cytotoxicity) assay, 1A9 cells; type: cell-based; conditions: for IC50: Homo sapiens, 1A9; for RAEpoB (relative activity), 1A9: ratio of IC50 of EpoB to IC50 of the tested compound in the concurrent assay
[2] = tested on: 1A9/PTX10, Taxol-resistant 1A9 cell line (β270 Phe→Val); assay: 72 hour growth-inhibition (cytotoxicity) assay, 1A9/PTX10 cells; type: cell-based, human; conditions: for IC50: Homo sapiens, 1A9/ptx-10; for RAEpoB (relative activity), 1A9/PTX10: ratio of IC50 of EpoB to IC50 of the tested compound in the concurrent assay; for RRp (relative resistance), 1A9/PTX10: IC50 of 1A9/PTX10 divided by IC50 of the parental cell line 1A9
[3] = tested on: 1A9/A8, EpoA-resistant 1A9 cell line (β274 Thr→Ile); assay: 72 hour growth-inhibition (cytotoxicity) assay, 1A9/A8 cells; type: cell-based, human; conditions: for IC50: Homo sapiens, 1A9; for RAEpoB (relative activity), 1A9/A8: ratio of IC50 of EpoB to IC50 of the tested compound in the concurrent assay; for RRp (relative resistance), 1A9/A8: IC50 of 1A9/A8 divided by IC50 of the parental cell line
[4] = tested on: KB-31 human epidermoid cancer cell line; assay: 72 hour growth-inhibition (cytotoxicity) assay, KB-31 cells; type: cell-based; conditions: for IC50: Homo sapiens
[5] = tested on: KB-8511, Taxol-resistant (Pgp-overexpression) KB cell line; conditions: human, 72 h
Protocol: (§1) In addition, further cytotoxicity studies were carried out using a pair of drug-sensitive parental human epidermoid carcinoma cells (KB-31) and its Taxol™-resistant Pgp-overexpressing subline (KB-5811).

[6] = tested on: A2780/AD10, drug-resistant clone of human ovarian carcinoma A2780 overexpressing P-glycoprotein; assay: 72 hour growth-inhibition (cytotoxicity) assay, A2780/AD10 cells; type: cell-based; conditions: for IC50: Homo sapiens, A2780, 72 hour growth inhibition, sulforhodamine-B staining, mean of 3-5 experiments ± SEM; for RRp (relative resistance), A2780/AD10: IC50 of A2780/AD10 divided by IC50 of the parental cell line; for potency enhancement over EpoB, A2780/AD10: PgP-overexpressing cell line
[7] = tested on: drug-sensitive and drug-resistant human cancer cell lines; assay: Cytotoxicity assays across the panel of cell lines (summary in words); type: cell-based; conditions: summary of Tables 1A-1C
[8] = tested on: KB-8511, Taxol-resistant (Pgp-overexpression) KB cell line; assay: 72 hour growth-inhibition (cytotoxicity) assay, KB-8511 cells
Protocol: as §1

[9] = Table 2, tested epothilone, unit from Table 1A note a, read-out: IC50, 1A9 (Table 2)
[10] = Table 2, tested epothilone, unit from Table 1A note a, read-out: IC50, 1A9/PTX10 (Table 2)
[11] = Table 2, tested epothilone, unit from Table 1A note a, read-out: IC50, 1A9/A8 (Table 2)
[12] = 72 hour growth inhibition, sulforhodamine-B staining, mean of 3-5 independent experiments ± standard error of the mean, read-out: 1A9 IC50
[13] = 72 hour growth inhibition, sulforhodamine-B staining, mean of 3-5 experiments ± SEM, read-out: 1A9/PTX10 IC50
[14] = 72 hour growth inhibition, sulforhodamine-B staining, mean of 3-5 experiments ± SEM, read-out: 1A9/A8 IC50
[15] = KB 3-1, 72 h, read-out: KB-31 IC50
[16] = read-out: KB-8511 IC50, 72 hour growth inhibition, methylene blue staining, mean of 3-5 experiments ± SEM
[17] = KB 3-1, read-out: IC50, KB-31 (Table 2)
[18] = read-out: IC50, KB-5811 (Table 2), Table 2, tested epothilone, cell line KB-5811, unit from Table 1A note a

Row | SMILES | IC50 [1, 9] | RAEpoB (relative activity), 1A9 [1] | IC50 [2, 10] | RAEpoB (relative activity), 1A9/PTX10 [2] | IC50 [3, 11] | RAEpoB (relative activity), 1A9/A8 [3] | IC50 [1, 12] | IC50 [2, 13] | IC50 [3, 14] | RRp (relative resistance), 1A9/A8 [3] | IC50 [6] | RRp (relative resistance), A2780/AD10 [6] | IC50 [4, 15] | cytotoxicity across the tested cell lines, in words [7] | IC50 [8, 16] | RRp (relative resistance), 1A9/PTX10 [2] | other results
1 | CSc1nc(/C=C(\C)[C@@H]2C[C@@H]3O[C@]3(C)CCC[C@H](C)[C@H](O)[C@@H](C)C(=O)C(C)(C)[C@@H](O)CC(=O)O2)cs1 [Compound 3, reference compound] | 0.17 nM | 1.8 | 0.26 nM | 14.2 | 1.3 nM | 5.0 |  |  |  |  |  |  |  |  |  |  | IC50 ([4]; KB 3-1, Table 2, tested epothilone, unit from Table 1A note a, read-out: IC50, KB-31 (Table 2)): 0.11 nM; IC50 [5]: 0.07 nM
2 | C/C(=C\c1nccn1C)[C@@H]1C[C@@H]2O[C@]2(C)CCC[C@H](C)[C@H](O)[C@@H](C)C(=O)C(C)(C)[C@@H](O)CC(=O)O1 [Compound 8] |  |  |  |  |  |  | 95.5 ± 13.4 nM | > 750 nM | 242 nM | 2.5 | 760 nM | 1.4 | 69.9 ± 5.31 nM | significantly lower activities | > 1000 nM |  | 
3 | C/C(=C\c1ncnn1C)[C@@H]1C[C@@H]2O[C@]2(C)CCC[C@H](C)[C@H](O)[C@@H](C)C(=O)C(C)(C)[C@@H](O)CC(=O)O1 [Compound 9] |  |  |  |  |  |  | 540 nM | > 750 nM | 627 nM | 1.2 | > 750 nM |  | 382 ± 49.4 nM | significantly lower activities | > 1000 nM |  | 
4 | C/C(=C\c1ccn(C)n1)[C@@H]1C[C@@H]2O[C@]2(C)CCC[C@H](C)[C@H](O)[C@@H](C)C(=O)C(C)(C)[C@@H](O)CC(=O)O1 [Compound 14] | 0.5 nM | 2.0 | 1.7 nM | 4.6 | 0.8 nM | 12.5 | 0.5 ± 0.3 nM | 1.7 ± 1.1 nM | 0.8 ± 0.3 nM | 1.6 | 25.5 ± 15.1 nM | 4.7 | 0.19 ± 0.01 nM | more potent cytotoxicities than EpoB across the board | 0.25 ± 0.04 nM | 3.4 | potency enhancement over EpoB, A2780/AD10 [6]: 20 fold; IC50 [4, 17]: 0.19 nM; IC50 [8, 18]: 0.25 nM
5 | C/C(=C\c1ccn(-c2ccccc2)n1)[C@@H]1C[C@@H]2O[C@]2(C)CCC[C@H](C)[C@H](O)[C@@H](C)C(=O)C(C)(C)[C@@H](O)CC(=O)O1 [Compound 15] |  |  |  |  |  |  | 5.45 ± 3.7 nM | 25.8 ± 19.8 nM | 4.8 ± 3.6 nM | 0.9 | 6.4 nM | 107 | 2.27 ± 0.16 nM | somewhat less active | 1.62 ± 0.14 nM | 4.7 | 
6 | CSc1cc(/C=C(\C)[C@@H]2C[C@@H]3O[C@]3(C)CCC[C@H](C)[C@H](O)[C@@H](C)C(=O)C(C)(C)[C@@H](O)CC(=O)O2)nn1C [Compound 16] | 0.06 nM | 16.5 | 0.1 nM | 78.0 | 0.6 nM | 16.7 | 0.06 ± 0.04 nM | 0.1 nM | 0.6 ± 0.5 nM | 10.0 | 30.3 ± 17.7 nM | 8.2 | 0.09 ± 0.01 nM | the most potent of all compounds tested; also recorded: outperformed EpoB in all five cancer cell lines tested | 0.14 ± 0.01 nM | 1.7 | potency (activity) increase as compared to EpoB, 1A9 ([1]; 1A9 parental cell line): 17 fold and 16.5 fold; potency increase as compared to EpoB, 1A9/PTX10 ([2]; Taxol-resistant cell line): 78 fold and 78.0 fold; potency (activity) increase as compared to EpoB, 1A9/A8 ([3]; EpoA-resistant cell line): 17 fold and 16.7 fold; potency enhancement over EpoB, A2780/AD10 [6]: 4 fold; IC50 [4, 17]: 0.09 nM; potency increase as compared to EpoB, KB cell lines ([4]; KB cell lines (KB-31 and KB-8511 together)): 3-5 fold; IC50 [8, 18]: 0.14 nM
7 | C/C(=C\C#N)[C@@H]1C[C@@H]2O[C@]2(C)CCC[C@H](C)[C@H](O)[C@@H](C)C(=O)C(C)(C)[C@@H](O)CC(=O)O1 [Compound 21] |  |  |  |  |  |  | > 750 nM | > 750 nM | > 750 nM |  | > 150 nM |  | 346 ± 10.5 nM | not found active; also recorded: devoid of any significant cytotoxicity against any of the cell lines tested | > 1000 nM |  | 
